Experimental data from patent US6673814B2, “Delivery systems and methods for noscapine and noscapine derivatives, useful as anticancer agents” (Emory University, priority 1997, dated 2004).
One block for each compound: values may come before it.

Key:
HL-60 cells = assay: Apoptosis of HL-60 cells, DAPI staining of nuclear chromatin; format: cell-based; settings: for Apoptic Cell Percentage: 24 hours
Description: Morphological changes in the nuclear chromatin of HL-60 cells undergoing apoptosis were detected by staining with 4′, 6-diamidino-2-phenylindole (DAPI). In brief, 0.5×10^6 to 3×10^6 cells were fixed with 4% glutaraledehyde, 0.2% Triton x-100, in PBS and incubated at room temperature for 10 min., then centrifuged at 1000×9 for 10 min., resuspended in 20 μ1 0.1% DAPI ethanol. Following 15 min. incubation at room temperature, at 10 μl aliquot was placed on a glass slide, and 400 cells per slide were scored for the incidence of apoptotic chromatin changes with a fluorescence microscope.

Hela cells = assay: M phase arrest, alpha-tubulin immunofluorescence and flow cytometry, Hela cells; format: cell-based; settings: 20 μM noscapine, 24 hr
Description: (§1) Hela cells were grown in DMEM supplemented with 10% fetal calf serum, 1 mM L-glutamine and 1% penicillin/streptomycin. The tumor cell line E-G7-OV A […] [Moore, M. W., et al., Cell. 54, 777 (1988)] was grown in RPM1 1640 with 10% fetal calf serum, 1% sodium pyruvate, 1 mM L-glutamine, 0.1% gentamycin, 50 μtM β-mercaptoethanol. Cells were grown at 37° C. in a 5% CO2 atmosphere. Cell viability was assessed by trypan blue exclusion analysis. Cell numbers were determined using a hemacytometer, C57BL/6 […] mice, 8 to 12 weeks of age, were obtained from Harian Sprague Dawley, Inc. (Indiananapolis, Ind.). Mice were maintained on standard laboratory chow and water ad libitum, in a temperature and light controlled environment. For immunofluorescence, both Hela and thymocyte cells were treated identically except the Hela cells were grown onto glass coverslips while EL4 thymocytes were put on glass coverslips after fixation. […]
(§2) Then cells were washed with 1% BSA-PBS solution for 10 min. at room temperature before incubating with a 1:200 dilution of a rhodamine labeled goat anti-mouse IgG antibody at room temperature for 45 min., then the coverslips were rinsed by 1% BSA/PBS solution for 10 min. and labeled by DAPI (4′, 6-diamino-2-phenyliudole) for another 10 min. at room temperature. […] Cells were examined with a fluorescence microscope. […] The samples were read on a cytometer.

bovine brain tubulin [1] = assay: Microtubule assembly, turbidity at 350 nm; format: biochemical; settings: 20 μM noscapine, 37° C., G-PEM buffer
Description: (§3) Phosphocellulose purified bovine brain tubulin was employed throughout these biophysical experiments. Fluorescence titration for determining binding constants was performed according to Peyrot, V. et al., Biochemistry 31, 11125 (1992). In brief; at room temperature, 2 μM tubulin in 100 mM PIPES, 2 mM EGTA, 1 mM MgCl2 was excited at 278 nm, and the fluorescence emission spectra were recorded with bandwidths 2 nm. […] The concentration of noscapine was raised in increments of 0.5 μM, until the decrease in the fluorescence intensity was saturated. The value of the dissociation constant and the number of sites were obtained from Scatchard plots using the equation, […], where r is the ratio of the concentration of bound ligand to the total protein concentration and n is the number of binding sites. Circular dichroism (CD) spectra measurements were performed in a spectroscometer, in cells (0.1 cm path) at 25° C. Microtubule assembly was recorded on a spectrophotometer with thermocontroler. The cuvettes (0.4 cm path) containing 100 mM PIPES, 2 mM EGTA, 1 mM MgCl2 and 1 mM GTP (G-PEM buffer), and 20 μM noscapine/DMSO were kept at room temperature before addition of tubulin and shifting to 37° C. […] The assembly was monitored by measuring the changes in turbidity at 0.5 min. intervals. Noscapine was dissolved in DMSO at 0.8 mM and stocked at 4° C. […]

lymphocyte cells = assay: Apoptosis initiation: oligonucleosomal DNA fragmentation, DAPI staining, nick end labeling; format: cell-based; settings: noscapine treatment 0 to 24 hr
Description: Oligonucleosomal fragmentation of genomic DNA was determined according to Walton, M. I. et. al., Cancer. Res. 53, 1853 (1993). An aliquot of 3.3×10^6 cells in 10 ml medium was incubated with […] for different time periods ranging from 0 to 24 hr. At the end of incubation, cells were pelleted and washed twice with ice-cold PBS, and lysed in 250 μl 1% (v/v) NP-40 detergent containing 0.5 mg/ml proteinase K in PBS solution on ice for 60 min. Samples were centrifuged, and the supernatants were removed and incubated with 5 μl 10 mg/ml Rnase A at 37° C. for 40 min. An aliquot of 1 ml anhydrous ethanol was added, tubes were placed at −20° C. for 20 min., then centrifuged to pellet DNA. […]
Morphological changes in the nuclear chromatin of cells undergoing apoptosis were detected by staining with 4′, 6-diamidino-2-phenylindole (DAPI). […] Following 15 min. incubation at room temperature, a 10 μl aliquot was placed on a glass slide, and 400 cells per slide were scored for the incidence of apoptotic chromatin changes with a fluorescence microscope. […]
After the slides were rinsed with PBS, 50 μl converter-POD solution was added on samples and incubated for 30 min. at 37° C. […] After the slides were rinsed with PBS for another 3 times, coverslips were mounted and analyzed with a light microscope.

solid lymphoid tumors = assay: Apoptosis in solid lymphoid tumors induced in mice, Haemotoxline and Eosine staining; format: in vivo; settings: noscapine treated mice, microscopic examination
[2] = system: tumors derived from malignant melanoma cells; assay: Melanoma tumor progression in animals; format: in vivo
bovine brain tubulin [3] = assay: Tubulin binding by fluorescence titration, Scatchard plot
Description: as §3

thymocyte cells = assay: M phase arrest, alpha-tubulin immunofluorescence and flow cytometry, thymocyte cells; format: cell-based; settings: 20 μM noscapine, 24 hr
Description: as §1, §2

E.G7-OVA cells = assay: Inhibition of tumor growth, E.G7-OVA tumors in C57BL/6 mice; format: in vivo; settings: 3 mg noscapine every day for three weeks, intraperitoneally or intragastric; vs saline
Description: C57BL/6 mice were injected subcutaneously in the right flank with 2×10^6 E.G7-OVA cells. Three days later, mice were injected intraperitoneally, every day for three weeks, either with 200 μl saline (n=10), or with 3 mg noscapine dissolved in 200 μl saline (n=10),. Third group of mice (n=10) was fed 3 mg noscapine via intragastric (i.g.) intubation using a 1 ml syringe fitted with a 20 gauge stainless steel ball point needle. After three weeks, all mice were sacrificed by cervical dislocation. Tumors were removed and weighted. Tumor weights were individually plotted and comparisons between control and treatment groups were analyzed by the Student's test.

Compound: 1,3-dihydro-4,5-dimethoxy-1-[1-(8-methoxy-2-methyl-6,7-methylenedioxy-1,2,3,4-tetrahydroisoquinolinyl)] isobenzofuran-BH3 [Compound 3]
initiation of apoptosis (HL-60 cells): initiate apoptosis | Apoptic Cell Percentage (HL-60 cells; 20 μM in DMSO, first trial): 37% | Apoptic Cell Percentage (HL-60 cells; 20 μM in DMSO, second trial): 28% | Apoptic Cell Percentage (HL-60 cells; 50 μM in DMSO): 39%

Compound: COc1ccc2c(c1OC)CO[C@@H]2[C@H]1c2c(cc3c(c2OC)OCO3)CCN1C [Compound 4, 1,3-diliydro-4,5-dimethoxy-1-[1-(8-methoxy-2-methyl-6,7-methylenedioxy 1,2,3,4-tetrahydroixoquinolinyl)]isobenzofuran]
initiation of apoptosis (HL-60 cells): initiate apoptosis | Apoptic Cell Percentage (HL-60 cells; 20 μM in DMSO, first trial): 48% | Apoptic Cell Percentage (HL-60 cells; 20 μM in DMSO, second trial): 32% | Apoptic Cell Percentage (HL-60 cells; 50 μM in DMSO): 52%

Kd (bovine brain tubulin [3]; 2 μM tubulin, room temperature, Scatchard plot, read-out: apparent dissociation constant (Kd)): 1860 nM
Compound: COc1ccc2c(c1OC)C(=O)O[C@@H]2[C@H]1c2c(cc3c(c2OC)OCO3)CCN1C [Noscapine]
M phase arrest of microtubule arrays (Hela cells): microtubule arrays are arrested in M phase | tubulin assembly (absorbance at 350 nm) (bovine brain tubulin [1]): promotes tubulin assembly | initiation of apoptosis (HL-60 cells): initiate apoptosis | Apoptic Cell Percentage (HL-60 cells; 20 μM in DMSO, first trial): 30% | Apoptic Cell Percentage (HL-60 cells; 20 μM in DMSO, second trial): 17% | Apoptic Cell Percentage (HL-60 cells; 50 μM in DMSO): 27% | DNA degradation (gel electrophoresis of fragmented genomic DNA, staining of treated cells) (lymphocyte cells): progressive DNA degradation with increasing time | apoptotic morphologies of tumor cells (solid lymphoid tumors): many cells in noscapine treated mice with apoptotic morphologies | reduction of tumor volume compared to untreated animals [2]: ~83% | fluorescence quenching of tubulin (bovine brain tubulin [3]; excitation 278 nm): affords fluorescence quenching of tubulin | M phase arrest of microtubule arrays (thymocyte cells): microtubule arrays are arrested in M phase | tumor weight (E.G7-OVA cells): significantly reduced tumor weight
